Experiment [1] deals with mixture of Pseudomonas aeruginosa, Klebsiella pneumoniae, Staphylococcus aureus, and Bacillus subtilis. The experiment can be described thus: Growth inhibition assay. In kind it is cell-based. The conditions noted are these: for % Inhibition of growth by CTAC: Table 3, single active. The text has this: The growth inhibition assay used in the Examples measures inhibition of growth (or lack thereof) of a microbial consortium. Inhibition of growth can be the result of killing of the cells (so no growth occurs), killing of a significant portion of the populations of cells so that regrowth requires a prolonged time, or inhibition of growth without killing (stasis). Regardless of the mechanism of action, the impact of a biocide (or combination of biocides) can be measured over time on the basis of an increase in the size of the community.
The assay measures the efficacy of one or more biocides at preventing growth of a consortium of bacteria in a dilute mineral salts medium. The medium contains (in mg/l) the following components: FeCl3.6H2O (1); CaCl2.2H2O (10); MgSO4.7H2O (22.5); (NH4)2SO4 (40); KH2PO4 (10); K2HPO4 (25.5); Yeast Extract (10); and glucose (100). After all components are added to deionized water, the pH of the medium is adjusted to 7.5. Following filter sterilization, aliquots are dispensed in 100 ul quantities to sterile microtiter plate wells. Dilutions of DBMAL and/or “Biocide B” are then added to the microtiter plate. After preparing the combinations of actives as illustrated below, each well is inoculated with 100 μl of a cell suspension containing ca. 1×10^6 cells per milliliter of a mixture of Pseudomonas aeruginosa, Klebsiella pneumoniae, Staphylococcus aureus, and Bacillus subtilis. The final total volume of medium in each well is 300 μl. […] The resulting matrix allows testing of eight concentrations of each active and 64 combinations of actives in the ratios (of actives).
Controls (not shown) contain the medium with no biocide added. After preparing the combinations of actives as illustrated above, each well is inoculated with 100 μl of a cell suspension containing ca. 1×10^6 cells per milliliter of a mixture of Pseudomonas aeruginosa, Klebsiella pneumoniae, Staphylococcus aureus, and Bacillus subtilis. The final total volume of medium in each well is 300 μl.
Immediately after the microtiter plates are prepared, the optical density (OD) readings for each well is measured at 580 nm and the plates are then incubated at 37° C. for 24 hr. After the incubation period, the plates are gently agitated before OD580 values are collected. The OD580 values at T0 are subtracted from T24 values to determine the total amount of growth (or lack thereof) that occurs. These values are used to calculate the percent inhibition of growth caused by the presence of each biocide and each of the 64 combinations. A 90% inhibition of growth is used as a threshold for calculating synergy index (SI) values with the following equation: Synergy Index=MDBMAL/CDBMAL+MB/CB
where • CDBMAL: Concentration of DBMAL required to inhibit ˜90% of bacterial growth when used alone • CB: Concentration of biocide (B) required to inhibit ˜90% of bacterial growth when used alone. • MDBMAL: Concentration of DBMAL required to inhibit ˜90% of bacterial growth when used in combination with biocide (B). • MB: Concentration of biocide (B) required to inhibit ˜90% of bacterial growth when used in combination with DBMAL The SI values are interpreted as follows: • SI<1: Synergistic combination • SI=1: Additive combination • SI>1: Antagonistic combination

Experiment [2] concerns mixture of Pseudomonas aeruginosa ATCC 10145 and Staphylococcus aureus ATCC 6538. Put plainly: Kill assay (MBC, synergy index). In kind it is cell-based. The settings on record: 37° C., 2 hours. As for the experimental part: This assay is used as a preliminary evaluation of synergy between the actives. The procedure is as follows. A mineral salts solution (0.2203 g of CaCl2, 0.1847 g of MgSO4, and 0.2033 g of NaHCO3 in 1 L water, approximately pH 8) is inoculated with equal amounts (about 10^7 CFU/ml) of a mixture of Pseudomonas aeruginosa ATCC 10145 and Staphylococcus aureus ATCC 6538. Aliquots of the cell suspension are then treated with 2,2-dibromomalonamide (“DBMAL”), […], and their combinations at various concentration levels. […] The MBC values are then used to calculate a synergy index (SI) values.
Summaries of the kill assay results are presented in the individual Examples. In each table, MBC values for each biocide and the blends tested are presented Likewise, the Synergy Index (“SI”) values for the combinations are listed. SI is calculated with the following equation: Synergy Index=Ca/CA+Mb/CB […]

From patent publication US8747873B2, “Compositions of dibromomalonamide and their use as biocides” (Dow Global Technologies LLC, priority 2012, dated 2014) come the findings set out here.

Read-outs that look alike come from different tables or passages of the source.

“1-(3-chloroallyl)-3,5,7-triaza-1-azoniaadamantane chloride [CTAC]”: the “% Inhibition of growth by CTAC” value amounted to 0% in experiment [1] (CTAC Concn. 3.91 mg/l, 24 h); 18% in experiment [1] (CTAC Concn. 7.81 mg/l, 24 h); 20% in experiment [1] (CTAC Concn. 15.63 mg/l, 24 h); 21% in experiment [1] (CTAC Concn. 31.25 mg/l, 24 h); 0% in experiment [1] (CTAC Concn. 62.5 mg/l, 24 h); 100% in experiment [1] (CTAC Concn. 125.0 mg/l, 24 h). In addition, the “% Inhibition of growth by CTAC” value in experiment [1] (CTAC Concn. 250.0 mg/l, 24 h) was 100%; in experiment [1] (CTAC Concn. 500.0 mg/l, 24 h) it was 100%.
Consider `CC1(C)COCN1` [4,4-D, 4,4-Dimethyloxazolidine], for which, in experiment [1] (24 h, 4,4-D alone 7.81 mg/l, read-out: % Inhibition of growth by 4,4-D), the inhibition at 7.81 µg/mL came to 0%. The inhibition at 15.63 µg/mL in experiment [1] (24 h, 4,4-D alone 15.63 mg/l, read-out: % Inhibition of growth by 4,4-D) amounted to 2%. In addition, the inhibition at 31.25 µg/mL in experiment [1] (24 h, 4,4-D alone 31.25 mg/l, read-out: % Inhibition of growth by 4,4-D) came to 13%. In addition, the inhibition at 62.5 µg/mL in experiment [1] (24 h, 4,4-D alone 62.5 mg/l, read-out: % Inhibition of growth by 4,4-D) was found to be 98%. Moreover, the inhibition at 125 µg/mL in experiment [1] (24 h, 4,4-D alone 125.0 mg/l, read-out: % Inhibition of growth by 4,4-D) worked out at 100%. In addition, the inhibition at 250 µg/mL in experiment [1] (24 h, 4,4-D alone 250.0 mg/l, read-out: % Inhibition of growth by 4,4-D) came to 99%. Moreover, the inhibition at 500 µg/mL in experiment [1] (24 h, 4,4-D alone 500.0 mg/l, read-out: % Inhibition of growth by 4,4-D) stood at 100%. Also, the inhibition at 1000 µg/mL in experiment [1] (24 h, 4,4-D alone 1000.0 mg/l, read-out: % Inhibition of growth by 4,4-D) stood at 100%.
Consider `ClC=CC[N+]12CN3CN(CN(C3)C1)C2` [CTAC, 1-(3-chloroallyl)-3,5,7-triaza-1-azoniaadamantane chloride], for which, in experiment [1] (24 h, Table 6, CTAC alone 1.95 mg/l), the inhibition at 1.95 µg/mL was found to be 0%. The inhibition at 3.91 µg/mL in experiment [1] (24 h, Table 6, CTAC alone 3.91 mg/l) worked out at 0%. In addition, the inhibition at 7.81 µg/mL in experiment [1] (24 h, Table 6, CTAC alone 7.81 mg/l, read-out: % Inhibition of growth by CTAC) was determined as 9%. Moreover, the inhibition at 15.625 µg/mL in experiment [1] (24 h, Table 6, CTAC alone 15.625 mg/l) is 0%. Moreover, the inhibition at 31.25 µg/mL in experiment [1] (24 h, Table 6, CTAC alone 31.25 mg/l, read-out: % Inhibition of growth by CTAC) came to 35%. Further, the inhibition at 62.5 µg/mL in experiment [1] (24 h, Table 6, CTAC alone 62.5 mg/l, read-out: % Inhibition of growth by CTAC) was determined as 41%. For the same compound, the inhibition at 125 µg/mL in experiment [1] (24 h, Table 6, CTAC alone 125.0 mg/l, read-out: % Inhibition of growth by CTAC) turned out to be 100%. For the same compound, in experiment [1] (24 h, Table 6, CTAC alone 250.0 mg/l, read-out: % Inhibition of growth by CTAC), the inhibition at 250 µg/mL was 98%.
Turning to `CCC12COCN1COC2` [EBO, 7-ethyl bicyclooxazolidine], the “% Inhibition of growth by EBO” value is given as 0% in experiment [1] (EBO alone 7.81 mg/l, 24 h); 0% in experiment [1] (EBO alone 15.63 mg/l, 24 h); 0% in experiment [1] (EBO alone 31.25 mg/l, 24 h); 3% in experiment [1] (EBO alone 62.5 mg/l, 24 h); 10% in experiment [1] (EBO alone 125.0 mg/l, 24 h); 71% in experiment [1] (EBO alone 250.0 mg/l, 24 h). The “% Inhibition of growth by EBO” value in experiment [1] (EBO alone 500.0 mg/l, 24 h) came to 96%; in experiment [1] (EBO alone 1000.0 mg/l, 24 h) it was 100%.
In the case of `O=CCCCC=O` [Glut, glutaraldehyde], the “MBC (minimum biocide concentration needed to completely kill), biocide alone” value in experiment [2] is 29.6 µg/mL. The “concentration needed to provide at least 90% inhibition of growth” value in experiment [1] (biocide alone, 24 h) came to 125 mg/L.
`CCN1CN(CC)CN(CC)C1` [TEHT, 1,3,5-Triethylhexahydro-s-triazine]: the inhibition at 0.19 µg/mL in experiment [1] (24 h, TEHT alone 0.19 mg/l, read-out: % Inhibition of growth by TEHT) was determined as 10%. In addition, in experiment [1] (24 h, TEHT alone 0.39 mg/l, read-out: % Inhibition of growth by TEHT), the inhibition at 0.39 µg/mL is 11%. Further, in experiment [1] (24 h, TEHT alone 0.78 mg/l, read-out: % Inhibition of growth by TEHT), the inhibition at 0.78 µg/mL came to 10%. The inhibition at 1.56 µg/mL in experiment [1] (24 h, TEHT alone 1.56 mg/l, read-out: % Inhibition of growth by TEHT) is 22%. In addition, the inhibition at 3.13 µg/mL in experiment [1] (24 h, TEHT alone 3.13 mg/l, read-out: % Inhibition of growth by TEHT) was 49%. In experiment [1] (24 h, TEHT alone 6.25 mg/l, read-out: % Inhibition of growth by TEHT), the inhibition at 6.25 µg/mL amounted to 82%. In addition, the inhibition at 12.5 µg/mL in experiment [1] (24 h, TEHT alone 12.5 mg/l, read-out: % Inhibition of growth by TEHT) came out at 98%. In addition, the inhibition at 25 µg/mL in experiment [1] (24 h, TEHT alone 25.0 mg/l, read-out: % Inhibition of growth by TEHT) was found to be 100%.
On to `O=[N+]([O-])C(CO)(CO)CO` [TN, tris(hydroxymethyl)nitromethane], for which, in experiment [1] (24 h, TN alone 7.81 mg/l, read-out: % Inhibition of growth by TN), the inhibition at 7.81 µg/mL is 0%. In experiment [1] (24 h, TN alone 15.63 mg/l, read-out: % Inhibition of growth by TN), the inhibition at 15.63 µg/mL worked out at 4%. The inhibition at 31.25 µg/mL in experiment [1] (24 h, TN alone 31.25 mg/l, read-out: % Inhibition of growth by TN) is 0%. Further, in experiment [1] (24 h, TN alone 62.5 mg/l, read-out: % Inhibition of growth by TN), the inhibition at 62.5 µg/mL stood at 50%. Moreover, the inhibition at 125 µg/mL in experiment [1] (24 h, TN alone 125.0 mg/l, read-out: % Inhibition of growth by TN) came out at 100%. The inhibition at 250 µg/mL in experiment [1] (24 h, TN alone 250.0 mg/l, read-out: % Inhibition of growth by TN) was determined as 100%. Besides, in experiment [1] (24 h, TN alone 500.0 mg/l, read-out: % Inhibition of growth by TN), the inhibition at 500 µg/mL was found to be 100%. The inhibition at 1000 µg/mL in experiment [1] (24 h, TN alone 1000.0 mg/l, read-out: % Inhibition of growth by TN) stood at 100%.

What is called inhibition is the drop in the measured response relative to a control, in per cent.
